Measured values reported in patent publication US20200061076A1, “METHODS OF TREATING LEUKODYSTROPHIES” (Ramot at Tel-Aviv University Ltd., priority 2017, published 2020).

Columns and labels:
Mut MEFs [1] = assay: Cell survival assay, Crystal violet staining, Mut MEFs; assay type: cell-based, mouse; settings: for Survival (%) ± SEM Mut MEFs: 24 hours, untreated cells set to 100%
Method: Cells were seeded on 96-wells plate at a density of 5000 cells per well. Astrocytes were seeded following coating with 0.001% PDL.

Mut MEFs [2] = assay: Survival under Tunicamycin-induced ER stress, Crystal Violet, MEFs; settings: Mut MEFs, 30 μM, 50 ng/ml Tunicamycin 22 hours (FIG. 20B)
Method: Mut MEFs were treated or not for 24 hours with the indicated concentrations of the indicated Sig-1R binders in the presence of 0.1 μg/ml Tunicamycin (Tun) during the last 22 hours. Following, the cells were washed, fixated and stained with Crystal Violet (CV) followed by measurement of absorbance at 570 nm. Shown is average % of CV staining relative to cells not treated with tunicamycin nor Sig-1R binder ±SEM of 3 independent experiments. *p<0.03.
Following, the cells were washed, fixated and stained with Crystal Violet and absorbance at 570 nm was measured. Data is presented relative to cells of the corresponding genotype not treated with p8G5 nor Tunicamycin. Shown is average % of CV staining ±SEM of 3 independent experiments.
Mut MEFs were treated or not for 24 hours with 10, 20 or 30 μM of the indicated Sig-1R binders in the presence of 50 ng/ml Tunicamycin (Tun) during the last 22 hours. Following, the cells were washed, fixated and stained with Crystal Violet (CV) followed by measurement of absorbance at 570 nm. Shown is % of CV staining relative to cells not treated with tunicamycin nor Sig-1R binder ±SEM of 3 independent experiments, *p<0.05.
Mut MEFs were incubated or not with the indicated concentrations of the indicated compounds for 2 hours followed by addition of 50 ng/ml Tunicamycin (Tun) for additional 22 hours, stained with Crystal Violet followed by measurement of absorbance at 570 nm. Shown is average normalized to Tun-treated cells without any compound ±SEM of 3 independent experiments. * not significant; ** p<0.02; *** all values p<0.04.

Mut MEFs [3] = assay: JC1 staining of intact and damaged mitochondria (mitochondrial membrane potential); assay type: cell-based, mouse; settings: Mut MEFs, 10 μM
Method: Mut MEFs were treated or not for 6 hours with the indicated concentrations of p8G5 (blue), pre084 (purple), or NE-100 (yellow), washed and stained with Hoechst and JC1 for 30 minutes followed by image acquisition using In-Cell-Analyzer-2000. Shown is the % of red/green JC1 integrated intensity per cell relative to that in untreated WT cells of 2-4 independent experiments.
Following, the cells were washed, stained with Hoechst and JC-1 fluorescent dyes for 30 minutes, and subjected to image acquisition using In-Cell-Analyzer-2000. Shown is cellular content of damaged mitochondria (JC1 green channel, red bars), intact mitochondria (JC1 red channel, green bars) and damaged to intact mitochondria ratio (blue bars). Values of control (vehicle treated) cells was set to 100%.
Mut MEFs were treated with the indicated compounds at 10 μM for 24 hours followed by staining with fluorogenic dyes and image-based single-cell analysis. Shown is average effect on ROS level from at least 3-independent experiments ±SEM. […] Mut MEFs were incubated or not for 24 hours with 10 μM of the indicated compound, washed and stained with Crystal Violet. […] Mut MEFs were incubated or not for 24 hours with 10 μM of the indicated compound, washed and stained with JC1 and Hoechst followed by image-based single-cell analysis. Values of untreated cells were set as 100%. Shown is average of at least 3 independent experiments for each parameter compared to its matching control ±SEM. * p<0.05. Putative targets are indicated.
Mut MEFs were incubated or not for 24 hours with 10 μM of the indicated compounds, washed and stained with Hoechst and JC1 followed by image-based single-cell analysis. […] Mut MEFs were incubated or not with the indicated concentrations of the indicated compounds for 2 hours followed by addition of 50 ng/ml Tunicamycin (Tun) for additional 22 hours, stained with Crystal Violet followed by measurement of absorbance at 570 nm.
MEFs were seeded on 1% gelatin-coated 96-wells plate at a density of 5000 cells per well. 24 hours post-plating the cells were incubated with the tested compounds for additional 24 hours. Several DMSO-treated cells (control) were included in each plate at different locations. Following, the cells were stained by addition of fluorogenic dyes for further 30 minutes incubation at 37° C. […] CellROX was used together with Hoechst and CFSE; JC1 was used together with Hoechst. Cells were washed with Hank's balanced salt solution (HBSS) which was used for images acquisition using IN Cell Analyzer 2000 (GE Healthcare, Pitsburgh, Pa., USA). IN Cell Developer Toolbox 1.9.1 software (GE Healthcare) was used for analysis which included cells segmentation using Hoechst and/or CFSE signals. For analysis of JC1 staining, integrated intensity of green and red emissions were used for detection of damaged and intact mitochondria, respectively.

| SMILES | Survival (%) ± SEM Mut MEFs (Mut MEFs [1]; 10 μM) [%] | Survival (%) ± SEM Mut MEFs (Mut MEFs [1]; 20 μM) [%] | Survival (%) ± SEM Mut MEFs (Mut MEFs [1]; 30 μM) [%] | cell survival following Tun-induced cell death (Mut MEFs [2]) | other results |
| --- | --- | --- | --- | --- | --- |
| Cc1cc(C)cc(OCCCCCN2CCOCC2)c1 [Hit H8-1, 4-[5-(3,5-dimethylphenoxy)pentyl]morpholine] | 104 ± 2.7 | 103 ± 4.7 | 97 ± 3.9 |  |  |
| Cc1ccc(OCCCCCN2CCOCC2)cc1C [Hit H8-2, 4-[5-(3,4-dimethylphenoxy)pentyl]morpholine] | 92 ± 4.2 | 94 ± 8.8 | 95 ± 13.1 | most potent effect |  |
| Cc1cccc(OCCCCCCN2CCOCC2)c1 [Hit H8-3, 4-[6-(3-methylphenoxy)hexyl]morpholine] | 100 ± 7.2 | 96 ± 4.1 | 88 ± 4.5 |  |  |
| Cc1cccc(OCCCCN2CCOCC2)c1 [Hit H8-4, 4-[4-(3-methylphenoxy)butyl]morpholine] | 92 ± 8.5 | 95 ± 4.2 | 98 ± 5.4 |  |  |
| Cc1ccc(OCCCCN2CCOCC2)cc1C [Hit H8-5, 4-[4-(3,4-dimethylphenoxy)butyl]morpholine] | 92 ± 1.7 | 100 ± 4.4 | 98 ± 13.8 | most potent effect |  |
| COc1cccc(OCCCCCN2CCOCC2)c1 [Hit H8-6, 4-[5-(3-methoxyphenoxy)pentyl]morpholine] | 97 ± 5.1 | 92 ± 1.1 | 93 ± 5.2 | most potent effect |  |
| Clc1cccc(OCCCCCN2CCOCC2)c1 [Hit H8-7, 4-[5-(3-chlorophenoxy)pentyl]morpholine] | 98 ± 5.1 | 91 ± 4.7 | 88 ± 9.7 | most potent effect | mitochondrial health, damaged/intact organelle ratio (JC1) (Mut MEFs [3]; 24 hours (FIG. 20A)): at the top of the list |
| CN1CCN(CCCCCOc2ccccc2F)CC1 [Hit H8-8, 1-[5-(2-fluorophenoxy)pentyl]-4-methylpiperazine] | 101 ± 5.6 | 99 ± 11 | 90 ± 3.5 |  |  |
| COc1ccc(OC)c(N=Nc2nc3ccccc3n2C)c1 [Hit H16, 2-[(2,5-dimethoxyphenyl)diazenyl]-1-methyl-1H-benzimidazole] |  |  |  |  | cell viability / toxicity (crystal violet) (Mut MEFs [1]; Mut MEFs, 10 μM, 24 hours (FIG. 14B)): significant decrease in cell viability |
| Cc1cc(-c2ccccc2)nc2cc(C(=O)N3C(C)CCCC3C)nn12 (centres unmarked) [Hit H17, 2-[(2,6-dimethyl-1-piperidinyl)carbonyl]-7-methyl-5-phenylpyrazolo[1,5-a]pyrimidine] |  |  |  |  | effect on mitochondrial health (JC1, intact and damaged mitochondria) (Mut MEFs [3]; 24 hours (FIG. 14C)): significant beneficial effect on mitochondrial health |
| CNC1CCC(N(Cc2cccc(-c3ccncc3)c2)C(=O)c2sc3ccccc3c2Cl)CC1 (centres unmarked) [SAG, reference compound] |  |  |  |  | Survival (%) ± SEM Mut MEFs (Mut MEFs [1]; 0.01 μM): 98 ± 2.1%; Survival (%) ± SEM Mut MEFs (Mut MEFs [1]; 0.05 μM): 92 ± 3.2%; Survival (%) ± SEM Mut MEFs (Mut MEFs [1]; 0.1 μM): 95 ± 2.1%; Survival (%) ± SEM Mut MEFs (Mut MEFs [1]; 1 μM): 68 ± 2.7% |
